Results reported in ChEMBL document CHEMBL1240494, “Radiosynthesis and in vivo evaluation of [(11)C]MC80 for P-glycoprotein imaging” (Bioorg Med Chem, 2010).

Columns and labels:
Kidney [1] = test: Biodistribution in FVB mouse kidney at 4.5 MBq, iv after 60 mins postinjection pretreated with cyclosporin A; assay type: ADME, organism-based; conditions: in vivo, 1 h
Liver [2] = test: Biodistribution in FVB mouse liver at 4.5 MBq, iv after 60 mins postinjection pretreated with cyclosporin A; assay type: ADME, organism-based; conditions: in vivo, 1 h
Heart [3] = test: Biodistribution in FVB mouse heart at 4.5 MBq, iv after 1 min postinjection; assay type: ADME, organism-based; conditions: in vivo
Lung [4] = test: Biodistribution in FVB mouse lung at 4.5 MBq, iv after 1 min postinjection; assay type: ADME, organism-based; conditions: in vivo
Brain [5] = test: Biodistribution in mdr1a deficient mouse brain at 4.5 MBq, iv after 60 mins postinjection; assay type: ADME, organism-based; conditions: in vivo, 1 h
Lung [6] = test: Biodistribution in mdr1a deficient mouse lung at 4.5 MBq, iv after 1 min postinjection; assay type: ADME, organism-based; conditions: in vivo
Heart [7] = test: Biodistribution in mdr1a deficient mouse heart at 4.5 MBq, iv after 60 mins postinjection; assay type: ADME, organism-based; conditions: in vivo, 1 h
Kidney [8] = test: Biodistribution in mdr1a deficient mouse kidney at 4.5 MBq, iv after 60 mins postinjection; assay type: ADME, organism-based; conditions: in vivo, 1 h
Liver [9] = test: Biodistribution in mdr1a deficient mouse liver at 4.5 MBq, iv after 60 mins postinjection; assay type: ADME, organism-based; conditions: in vivo, 1 h
[10] = Ratio of drug uptake in brain to blood in FVB mouse at 18.5 MBq, iv after 30 mins postinjection; assay type: ADME, organism-based; conditions: 0.5 h
[11] = Ratio of drug uptake in brain to blood in FVB mouse at 18.5 MBq, iv after 90 mins postinjection; assay type: ADME, organism-based; conditions: 1.5 h
[12] = Ratio of drug uptake in testes to blood in FVB mouse at 18.5 MBq, iv after 30 mins postinjection; assay type: ADME, organism-based; conditions: in vivo, 0.5 h
[13] = Ratio of drug uptake in brain to blood in FVB mouse at 18.5 MBq, iv after 1 min postinjection pretreated with cyclosporin A; assay type: ADME, organism-based
[14] = Ratio of drug uptake in brain to blood in FVB mouse at 18.5 MBq, iv after 30 mins postinjection pretreated with cyclosporin A; assay type: ADME, organism-based; conditions: 0.5 h
[15] = Partition coefficient, log D of the compound; assay type: physicochemical; conditions: octanol/water
Blood = test: Biodistribution in FVB mouse blood at 4.5 MBq, iv after 1 min postinjection; assay type: ADME, organism-based; conditions: in vivo
Brain [16] = test: Biodistribution in FVB mouse brain at 4.5 MBq, iv after 1 min postinjection; assay type: ADME, organism-based; conditions: in vivo
Brain [17] = test: Biodistribution in FVB mouse brain at 4.5 MBq, iv after 90 mins postinjection; assay type: ADME, organism-based; conditions: in vivo, 1.5 h
Liver [18] = test: Biodistribution in FVB mouse liver at 4.5 MBq, iv; assay type: ADME, organism-based; conditions: in vivo
[19] = Biodistribution in FVB mouse small intestine at 4.5 MBq, iv after 1 min postinjection; assay type: ADME, organism-based; conditions: in vivo
[20] = Biodistribution in FVB mouse small intestine at 4.5 MBq, iv after 90 mins postinjection; assay type: ADME, organism-based; conditions: in vivo, 1.5 h
[21] = Biodistribution in FVB mouse large intestine at 4.5 MBq, iv after 1 min postinjection; assay type: ADME, organism-based; conditions: in vivo
[22] = Biodistribution in FVB mouse large intestine at 4.5 MBq, iv after 90 mins postinjection; assay type: ADME, organism-based; conditions: in vivo, 1.5 h
[23] = Biodistribution in FVB mouse testes at 4.5 MBq, iv after 60 mins postinjection pretreated with cyclosporin A; assay type: ADME, organism-based, Testis; conditions: in vivo, 1 h
Pancreas = test: Biodistribution in FVB mouse pancreas at 4.5 MBq, iv after 60 mins postinjection pretreated with cyclosporin A; assay type: ADME, organism-based; conditions: in vivo, 1 h
Spleen = test: Biodistribution in FVB mouse spleen at 4.5 MBq, iv after 60 mins postinjection pretreated with cyclosporin A; assay type: ADME, organism-based; conditions: in vivo, 1 h

Compound COc1cc2c(cc1OC)CN(Cc1ccc3cc(O[11CH3])ccc3c1)CC2 has a Drug uptake (Kidney [1]) of 2.46 % ID/g, a Drug uptake (Liver [2]) of 4.86 % ID/g and a Drug uptake (Heart [3]) of 10.69 % ID/g. For the same compound, the Drug uptake (Lung [4]) was 31.35 % ID/g, the Drug uptake (Brain [5]) was 1.09 % ID/g and the Drug uptake (Lung [6]) was 31.35 % ID/g. For the same compound, the Drug uptake (Heart [7]) was 10.69 % ID/g, the Drug uptake (Kidney [8]) was 2.46 % ID/g and the Drug uptake (Liver [9]) was 4.86 % ID/g. The Ratio [10] was 2.17, the Ratio [11] was 1.05 and the Ratio [12] was 3.04. For the same compound, the Ratio [13] was 2.91, the Ratio [14] was 1.5 and the logD [15] was 1.96. For the same compound, the Drug uptake (Blood) was 2.56 % ID/g, the Drug uptake (Brain [16]) was 7.66 % ID/g and the Drug uptake (Brain [17]) was 0.9 % ID/g. For the same compound, the Drug uptake (Liver [18]) was 8.71 % ID/g, the Drug uptake [19] was 3.89 % ID/g and the Drug uptake [20] was 11.78 % ID/g. It also gave a Drug uptake [21] of 1.83 % ID/g, a Drug uptake [22] of 2.18 % ID/g and a Drug uptake [23] of 2.56 % ID/g. For the same compound, the Drug uptake (Pancreas) was 6.85 % ID/g and the Drug uptake (Spleen) was 1.52 % ID/g.
